Measured values from PubChem BioAssay AID1845194 (Molecular Pharmacology Branch, DTP, NCI, 2023).
pIC50: −log10 of the molar value.

System: 287954-098-R-J1 tumor spheroid viability
Experiment: Anticancer human tumor 287954-098-R-J1 patient-derived Ewing sarcoma cell line growth inhibition
Conditions: spheroids with HUVEC and MSC; for pIC50: curve of first compound; for viability, T/C: stronger effect = lower value
Summary of the method: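 Complex spheroids of malignant cells with endothelial cells and mesenchymal stem cells; agents alone or combined, from near clinical Cmax (or 10 microM if unknown) down in half-log steps, 0.25% DMSO final.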
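Further: spheroids exposed to compound for 7 days before viability readout.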
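Wherever viability, T/C is given: luminescent signal taken as surrogate of viable cell content; 100% = DMSO vehicle control viability and lower means growth inhibition.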

## COc1cc(C)[nH]c(=O)c1CN1CCc2c(Cl)cc(C(OC)C3COC3)c(Cl)c2C1=O (stereo not given) + Cn1nnc2c(C(N)=O)ncn2c1=O
Second compound 1 µM
  pIC50: < 5.00
Second compound 3.16 µM
  pIC50: < 5.00
Second compound 10 µM
  pIC50: < 5.00
Second compound 31.6 µM
  pIC50: < 5.00
Second compound 100 µM
  pIC50: < 5.00
Second compound 1 µM, first compound 0.0316 µM
  viability, T/C: 98%
Second compound 1 µM, first compound 0.1 µM
  viability, T/C: 89.7%
Second compound 1 µM, first compound 0.316 µM
  viability, T/C: 96.8%
Second compound 1 µM, first compound 1 µM
  viability, T/C: 93.3%
Second compound 1 µM, first compound 3.16 µM
  viability, T/C: 89%
Second compound 1 µM, first compound 10 µM
  viability, T/C: 90.7%
Second compound 3.16 µM, first compound 0.0316 µM
  viability, T/C: 105%
Second compound 3.16 µM, first compound 0.1 µM
  viability, T/C: 100%
Second compound 3.16 µM, first compound 0.316 µM
  viability, T/C: 96.5%
Second compound 3.16 µM, first compound 1 µM
  viability, T/C: 91.9%
Second compound 3.16 µM, first compound 3.16 µM
  viability, T/C: 86.9%
Second compound 3.16 µM, first compound 10 µM
  viability, T/C: 93.3%
Second compound 10 µM, first compound 0.0316 µM
  viability, T/C: 102%
Second compound 10 µM, first compound 0.1 µM
  viability, T/C: 99.6%
Second compound 10 µM, first compound 0.316 µM
  viability, T/C: 90.1%
Second compound 10 µM, first compound 1 µM
  viability, T/C: 89.6%
Second compound 10 µM, first compound 3.16 µM
  viability, T/C: 89.9%
Second compound 10 µM, first compound 10 µM
  viability, T/C: 93%
Second compound 31.6 µM, first compound 0.0316 µM
  viability, T/C: 102%
Second compound 31.6 µM, first compound 0.1 µM
  viability, T/C: 97.4%
Second compound 31.6 µM, first compound 0.316 µM
  viability, T/C: 93.3%
Second compound 31.6 µM, first compound 1 µM
  viability, T/C: 89.8%
Second compound 31.6 µM, first compound 3.16 µM
  viability, T/C: 90.7%
Second compound 31.6 µM, first compound 10 µM
  viability, T/C: 96.1%
Second compound 100 µM, first compound 0.0316 µM
  viability, T/C: 95%
Second compound 100 µM, first compound 0.1 µM
  viability, T/C: 99.9%
Second compound 100 µM, first compound 0.316 µM
  viability, T/C: 87.7%
Second compound 100 µM, first compound 1 µM
  viability, T/C: 83.9%
Second compound 100 µM, first compound 3.16 µM
  viability, T/C: 87%
Second compound 100 µM, first compound 10 µM
  viability, T/C: 83.5%

## CNCc1ccc(-c2cc(-c3nc(-c4ccc(S(=O)(=O)C(C)C)cc4)cnc3N)on2)cc1 + CC[C@@]1(O)C(=O)OCc2c1cc1n(c2=O)Cc2cc3c(CN(C)C)c(O)ccc3nc2-1
Second compound 0.003 µM
  pIC50: 6.70
Second compound 0.00949 µM
  pIC50: 6.80
Second compound 0.03 µM
  pIC50: > 8.02
Second compound 0.0949 µM
  pIC50: > 8.02
Second compound 0.3 µM
  pIC50: > 8.02
Second compound 0.003 µM, first compound 0.00949 µM
  viability, T/C: 109%
Second compound 0.003 µM, first compound 0.03 µM
  viability, T/C: 93.4%
Second compound 0.003 µM, first compound 0.0949 µM
  viability, T/C: 108%
Second compound 0.003 µM, first compound 0.3 µM
  viability, T/C: 19.7%
Second compound 0.003 µM, first compound 0.949 µM
  viability, T/C: 0.19%
Second compound 0.003 µM, first compound 3 µM
  viability, T/C: 0.31%
Second compound 0.00949 µM, first compound 0.00949 µM
  viability, T/C: 103%
Second compound 0.00949 µM, first compound 0.03 µM
  viability, T/C: 114%
Second compound 0.00949 µM, first compound 0.0949 µM
  viability, T/C: 89.3%
Second compound 0.00949 µM, first compound 0.3 µM
  viability, T/C: 0.67%
Second compound 0.00949 µM, first compound 0.949 µM
  viability, T/C: 0.1%
Second compound 0.00949 µM, first compound 3 µM
  viability, T/C: 0.26%
Second compound 0.03 µM, first compound 0.00949 µM
  viability, T/C: 19.1%
Second compound 0.03 µM, first compound 0.03 µM
  viability, T/C: 3.38%
Second compound 0.03 µM, first compound 0.0949 µM
  viability, T/C: 2.05%
Second compound 0.03 µM, first compound 0.3 µM
  viability, T/C: 0.64%
Second compound 0.03 µM, first compound 0.949 µM
  viability, T/C: 0.05%
Second compound 0.03 µM, first compound 3 µM
  viability, T/C: 0.26%
Second compound 0.0949 µM, first compound 0.00949 µM
  viability, T/C: 2.1%
Second compound 0.0949 µM, first compound 0.03 µM
  viability, T/C: 2.08%
Second compound 0.0949 µM, first compound 0.0949 µM
  viability, T/C: 2.28%
Second compound 0.0949 µM, first compound 0.3 µM
  viability, T/C: 0.97%
Second compound 0.0949 µM, first compound 0.949 µM
  viability, T/C: 0.06%
Second compound 0.0949 µM, first compound 3 µM
  viability, T/C: 0.3%
Second compound 0.3 µM, first compound 0.00949 µM
  viability, T/C: 2.14%
Second compound 0.3 µM, first compound 0.03 µM
  viability, T/C: 2.11%
Second compound 0.3 µM, first compound 0.0949 µM
  viability, T/C: 2.27%
Second compound 0.3 µM, first compound 0.3 µM
  viability, T/C: 1.94%
Second compound 0.3 µM, first compound 0.949 µM
  viability, T/C: 0.24%
Second compound 0.3 µM, first compound 3 µM
  viability, T/C: 0.43%
